Experimental data published in ChEMBL document CHEMBL1201862, “PubChem BioAssay data set” (2004).
Activity calls are given as the source filed them.

Tests used:
[1] = biological target: T1, RNA-binding protein pos-1 (Caenorhabditis elegans, UniProt G5EF15); assay: inhibitors of POS-1/mex-3 RNA binding, dose response, biochemical, fluorescence polarization (AID 1964);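 note: purified POS-1 fused to maltose binding protein made in E. coli; potency of compounds blocking POS-1 binding to fluorescent RNA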
T1 sequence (G5EF15 whole entry): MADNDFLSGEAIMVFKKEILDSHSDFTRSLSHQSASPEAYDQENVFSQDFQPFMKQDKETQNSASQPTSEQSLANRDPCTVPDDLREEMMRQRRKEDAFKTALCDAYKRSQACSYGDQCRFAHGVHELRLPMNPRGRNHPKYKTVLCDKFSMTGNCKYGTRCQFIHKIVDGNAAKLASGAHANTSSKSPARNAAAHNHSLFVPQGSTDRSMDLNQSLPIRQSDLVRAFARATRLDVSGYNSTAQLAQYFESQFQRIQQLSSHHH

[2] = biological target: Glucose-6-phosphate 1-dehydrogenase (Homo sapiens, UniProt P11413); assay: human G6PD enzyme inhibitors, dose response, selectivity assay for P. falciparum G6PD inhibitor project, biochemical, fluorescence (AID 504792); type: functional
Glucose-6-phosphate 1-dehydrogenase, sequence (P11413 whole entry): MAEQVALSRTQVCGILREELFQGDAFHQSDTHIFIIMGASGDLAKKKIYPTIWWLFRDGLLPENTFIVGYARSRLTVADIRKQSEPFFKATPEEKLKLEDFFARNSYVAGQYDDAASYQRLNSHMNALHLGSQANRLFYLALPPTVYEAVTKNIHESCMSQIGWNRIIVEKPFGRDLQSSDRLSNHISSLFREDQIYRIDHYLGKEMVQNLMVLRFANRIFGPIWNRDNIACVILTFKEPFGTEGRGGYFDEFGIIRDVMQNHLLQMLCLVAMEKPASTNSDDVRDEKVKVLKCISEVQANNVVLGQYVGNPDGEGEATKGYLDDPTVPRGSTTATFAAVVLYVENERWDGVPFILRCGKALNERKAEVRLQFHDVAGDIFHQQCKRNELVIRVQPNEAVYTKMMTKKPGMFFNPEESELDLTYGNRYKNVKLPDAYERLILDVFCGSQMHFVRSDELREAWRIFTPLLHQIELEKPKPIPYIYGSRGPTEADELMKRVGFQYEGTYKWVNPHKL

[3] = biological target: T2, Zinc finger protein mex-5 (Caenorhabditis elegans, UniProt Q9XUB2); assay: MEX-5/TCR-2 RNA interaction inhibitors, dose response, biochemical, C. elegans, fluorescence polarization (AID 1960)
T2 sequence (Q9XUB2 whole entry): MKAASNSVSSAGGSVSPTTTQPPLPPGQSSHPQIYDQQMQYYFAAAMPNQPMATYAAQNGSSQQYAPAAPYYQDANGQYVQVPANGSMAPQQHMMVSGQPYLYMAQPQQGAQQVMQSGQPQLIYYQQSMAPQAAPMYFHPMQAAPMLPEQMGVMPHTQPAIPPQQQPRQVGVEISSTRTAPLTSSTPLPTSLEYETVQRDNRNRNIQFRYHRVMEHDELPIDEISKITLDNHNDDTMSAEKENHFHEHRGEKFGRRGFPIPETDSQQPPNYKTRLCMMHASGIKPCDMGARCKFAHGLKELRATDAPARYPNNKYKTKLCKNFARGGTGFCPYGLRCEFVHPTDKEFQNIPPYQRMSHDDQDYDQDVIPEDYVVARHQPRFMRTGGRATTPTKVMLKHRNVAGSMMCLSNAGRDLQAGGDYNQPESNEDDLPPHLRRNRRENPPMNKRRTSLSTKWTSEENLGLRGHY

INS1 = assay: beta cell apoptosis inhibitors, cytokine rescue, dose response, luminescence, retest (AID 449756); type: functional, cell-based; conditions: Rattus norvegicus, INS1;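 note: cell death triggered by IL-1 beta plus TNF-alpha plus IFN-gamma mixture; protective hits raise ATP signal compared with cytokine alone wells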
[4] = biological target: T3, Mannose-6-phosphate isomerase (Homo sapiens, UniProt P34949); assay: human PMI inhibitors, high substrate, primary screen, biochemical, fluorescence intensity, high mannose 6-phosphate (AID 1220)
T3 sequence (P34949 whole entry): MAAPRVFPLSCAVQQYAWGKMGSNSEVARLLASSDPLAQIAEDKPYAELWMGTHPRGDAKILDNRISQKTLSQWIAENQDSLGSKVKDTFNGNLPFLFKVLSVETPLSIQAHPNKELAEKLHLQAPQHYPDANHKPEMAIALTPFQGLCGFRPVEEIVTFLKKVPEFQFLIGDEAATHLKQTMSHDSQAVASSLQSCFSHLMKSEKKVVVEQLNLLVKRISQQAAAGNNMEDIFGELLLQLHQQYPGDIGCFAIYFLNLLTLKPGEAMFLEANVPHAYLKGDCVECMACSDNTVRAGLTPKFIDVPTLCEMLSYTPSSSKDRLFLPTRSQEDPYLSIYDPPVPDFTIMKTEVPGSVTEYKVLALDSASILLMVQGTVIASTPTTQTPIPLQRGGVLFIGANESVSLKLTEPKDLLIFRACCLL

[5] = biological target: T4, Rac GTPase-activating protein 1 (Homo sapiens, UniProt Q9H0H5); assay: MgcRacGAP GTPase-activating activity inhibitors, confirmation, biochemical, ADP Hunter fluorescence, primary and confirmatory (AID 624330); type: functional
T4 sequence (Q9H0H5 whole entry): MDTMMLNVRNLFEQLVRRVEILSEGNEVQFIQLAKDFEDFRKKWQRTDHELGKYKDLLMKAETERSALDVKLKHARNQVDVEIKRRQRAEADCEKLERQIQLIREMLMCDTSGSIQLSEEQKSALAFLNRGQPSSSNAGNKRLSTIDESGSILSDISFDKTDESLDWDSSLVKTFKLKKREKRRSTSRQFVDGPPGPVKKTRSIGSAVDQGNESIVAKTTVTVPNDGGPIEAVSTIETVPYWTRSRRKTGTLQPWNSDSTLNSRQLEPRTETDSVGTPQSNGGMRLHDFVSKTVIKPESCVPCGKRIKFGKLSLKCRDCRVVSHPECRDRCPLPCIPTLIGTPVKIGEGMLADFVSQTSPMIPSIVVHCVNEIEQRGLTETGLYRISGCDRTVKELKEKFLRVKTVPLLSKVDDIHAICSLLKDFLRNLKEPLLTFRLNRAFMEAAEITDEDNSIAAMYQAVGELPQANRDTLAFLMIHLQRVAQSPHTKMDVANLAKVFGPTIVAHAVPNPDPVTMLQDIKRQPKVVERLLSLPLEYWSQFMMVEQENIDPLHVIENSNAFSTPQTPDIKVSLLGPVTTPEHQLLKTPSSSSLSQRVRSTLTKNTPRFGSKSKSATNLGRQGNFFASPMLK

Large T antigen = Large T antigen (Simian virus 40, UniProt P03070); type: functional, Betapolyomavirus macacae;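 note: Confirmatory-stage PubChem screen for compounds that inhibit SV40 T antigen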
Large T antigen, sequence (P03070 whole entry): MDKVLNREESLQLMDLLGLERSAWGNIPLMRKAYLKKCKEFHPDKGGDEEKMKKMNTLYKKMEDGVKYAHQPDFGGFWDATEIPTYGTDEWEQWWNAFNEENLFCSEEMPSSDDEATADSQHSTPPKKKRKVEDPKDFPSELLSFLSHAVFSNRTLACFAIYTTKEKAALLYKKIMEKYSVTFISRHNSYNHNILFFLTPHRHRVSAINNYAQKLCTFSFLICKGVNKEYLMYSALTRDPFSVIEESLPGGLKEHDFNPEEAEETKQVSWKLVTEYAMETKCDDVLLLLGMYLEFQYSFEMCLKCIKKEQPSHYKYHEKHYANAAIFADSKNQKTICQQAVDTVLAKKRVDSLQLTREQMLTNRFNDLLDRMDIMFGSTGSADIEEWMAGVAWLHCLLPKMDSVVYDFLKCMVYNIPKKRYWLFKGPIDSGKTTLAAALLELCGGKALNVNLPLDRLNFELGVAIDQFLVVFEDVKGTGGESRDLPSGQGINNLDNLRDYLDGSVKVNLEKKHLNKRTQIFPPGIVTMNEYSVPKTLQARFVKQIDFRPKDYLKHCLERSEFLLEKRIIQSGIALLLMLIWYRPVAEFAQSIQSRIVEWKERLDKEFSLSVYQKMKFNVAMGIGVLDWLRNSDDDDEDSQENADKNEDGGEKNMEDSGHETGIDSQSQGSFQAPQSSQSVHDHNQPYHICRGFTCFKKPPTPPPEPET

Genome polyprotein = Genome polyprotein (dengue virus type 2, UniProt P29990); assay: Dengue-2 NS5 methyltransferase inhibitors, primary screen, biochemical, confirmation dose response (AID 588689); type: functional
Mucolipin-3 = biological target: T5, Mucolipin-3 (Homo sapiens, UniProt Q8TDD5); assay: Fluorescence counterscreen assay for […] agonists: dose response cell-based high-throughput screening assay to identify agonists of the transient receptor potential channel ML3 (TRPML3). [Related pubchem assays: 1424, 1448 ]; type: functional
T5 sequence (Q8TDD5 whole entry): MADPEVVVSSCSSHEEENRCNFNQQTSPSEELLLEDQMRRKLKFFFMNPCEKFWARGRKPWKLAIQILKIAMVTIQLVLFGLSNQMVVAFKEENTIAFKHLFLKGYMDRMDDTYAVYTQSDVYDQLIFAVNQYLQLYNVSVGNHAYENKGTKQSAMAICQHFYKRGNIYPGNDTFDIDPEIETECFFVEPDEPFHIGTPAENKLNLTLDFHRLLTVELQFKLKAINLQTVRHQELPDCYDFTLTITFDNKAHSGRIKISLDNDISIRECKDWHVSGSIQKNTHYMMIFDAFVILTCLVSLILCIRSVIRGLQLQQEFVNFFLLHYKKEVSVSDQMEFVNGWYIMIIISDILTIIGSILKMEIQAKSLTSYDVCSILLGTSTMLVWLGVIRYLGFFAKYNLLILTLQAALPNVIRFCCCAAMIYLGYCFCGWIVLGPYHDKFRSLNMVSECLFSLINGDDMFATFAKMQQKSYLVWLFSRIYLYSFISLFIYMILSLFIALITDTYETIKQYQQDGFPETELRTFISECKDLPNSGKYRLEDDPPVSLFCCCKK

[6] = inhibitors of intracellular T. cruzi replication, confirmation, NIH3T3 host cells, beta-gal luminescence (AID 2044); type: functional, cell-based;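 note: intracellular parasites grown in NIH/3T3 mouse fibroblasts as host cells; luminescent beta-galactosidase reporter signal from transgenic T. cruzi replicating inside host cells; inhibitors lower the luminescence signal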
[7] = biological target: T6, Voltage-gated N-type calcium channel alpha-1B subunit/Amyloid beta A4 precursor protein-binding family A member 1 (Homo sapiens, UniProt Q00975+Q02410); type: protein assay
T6 sequence (Q00975 whole entry): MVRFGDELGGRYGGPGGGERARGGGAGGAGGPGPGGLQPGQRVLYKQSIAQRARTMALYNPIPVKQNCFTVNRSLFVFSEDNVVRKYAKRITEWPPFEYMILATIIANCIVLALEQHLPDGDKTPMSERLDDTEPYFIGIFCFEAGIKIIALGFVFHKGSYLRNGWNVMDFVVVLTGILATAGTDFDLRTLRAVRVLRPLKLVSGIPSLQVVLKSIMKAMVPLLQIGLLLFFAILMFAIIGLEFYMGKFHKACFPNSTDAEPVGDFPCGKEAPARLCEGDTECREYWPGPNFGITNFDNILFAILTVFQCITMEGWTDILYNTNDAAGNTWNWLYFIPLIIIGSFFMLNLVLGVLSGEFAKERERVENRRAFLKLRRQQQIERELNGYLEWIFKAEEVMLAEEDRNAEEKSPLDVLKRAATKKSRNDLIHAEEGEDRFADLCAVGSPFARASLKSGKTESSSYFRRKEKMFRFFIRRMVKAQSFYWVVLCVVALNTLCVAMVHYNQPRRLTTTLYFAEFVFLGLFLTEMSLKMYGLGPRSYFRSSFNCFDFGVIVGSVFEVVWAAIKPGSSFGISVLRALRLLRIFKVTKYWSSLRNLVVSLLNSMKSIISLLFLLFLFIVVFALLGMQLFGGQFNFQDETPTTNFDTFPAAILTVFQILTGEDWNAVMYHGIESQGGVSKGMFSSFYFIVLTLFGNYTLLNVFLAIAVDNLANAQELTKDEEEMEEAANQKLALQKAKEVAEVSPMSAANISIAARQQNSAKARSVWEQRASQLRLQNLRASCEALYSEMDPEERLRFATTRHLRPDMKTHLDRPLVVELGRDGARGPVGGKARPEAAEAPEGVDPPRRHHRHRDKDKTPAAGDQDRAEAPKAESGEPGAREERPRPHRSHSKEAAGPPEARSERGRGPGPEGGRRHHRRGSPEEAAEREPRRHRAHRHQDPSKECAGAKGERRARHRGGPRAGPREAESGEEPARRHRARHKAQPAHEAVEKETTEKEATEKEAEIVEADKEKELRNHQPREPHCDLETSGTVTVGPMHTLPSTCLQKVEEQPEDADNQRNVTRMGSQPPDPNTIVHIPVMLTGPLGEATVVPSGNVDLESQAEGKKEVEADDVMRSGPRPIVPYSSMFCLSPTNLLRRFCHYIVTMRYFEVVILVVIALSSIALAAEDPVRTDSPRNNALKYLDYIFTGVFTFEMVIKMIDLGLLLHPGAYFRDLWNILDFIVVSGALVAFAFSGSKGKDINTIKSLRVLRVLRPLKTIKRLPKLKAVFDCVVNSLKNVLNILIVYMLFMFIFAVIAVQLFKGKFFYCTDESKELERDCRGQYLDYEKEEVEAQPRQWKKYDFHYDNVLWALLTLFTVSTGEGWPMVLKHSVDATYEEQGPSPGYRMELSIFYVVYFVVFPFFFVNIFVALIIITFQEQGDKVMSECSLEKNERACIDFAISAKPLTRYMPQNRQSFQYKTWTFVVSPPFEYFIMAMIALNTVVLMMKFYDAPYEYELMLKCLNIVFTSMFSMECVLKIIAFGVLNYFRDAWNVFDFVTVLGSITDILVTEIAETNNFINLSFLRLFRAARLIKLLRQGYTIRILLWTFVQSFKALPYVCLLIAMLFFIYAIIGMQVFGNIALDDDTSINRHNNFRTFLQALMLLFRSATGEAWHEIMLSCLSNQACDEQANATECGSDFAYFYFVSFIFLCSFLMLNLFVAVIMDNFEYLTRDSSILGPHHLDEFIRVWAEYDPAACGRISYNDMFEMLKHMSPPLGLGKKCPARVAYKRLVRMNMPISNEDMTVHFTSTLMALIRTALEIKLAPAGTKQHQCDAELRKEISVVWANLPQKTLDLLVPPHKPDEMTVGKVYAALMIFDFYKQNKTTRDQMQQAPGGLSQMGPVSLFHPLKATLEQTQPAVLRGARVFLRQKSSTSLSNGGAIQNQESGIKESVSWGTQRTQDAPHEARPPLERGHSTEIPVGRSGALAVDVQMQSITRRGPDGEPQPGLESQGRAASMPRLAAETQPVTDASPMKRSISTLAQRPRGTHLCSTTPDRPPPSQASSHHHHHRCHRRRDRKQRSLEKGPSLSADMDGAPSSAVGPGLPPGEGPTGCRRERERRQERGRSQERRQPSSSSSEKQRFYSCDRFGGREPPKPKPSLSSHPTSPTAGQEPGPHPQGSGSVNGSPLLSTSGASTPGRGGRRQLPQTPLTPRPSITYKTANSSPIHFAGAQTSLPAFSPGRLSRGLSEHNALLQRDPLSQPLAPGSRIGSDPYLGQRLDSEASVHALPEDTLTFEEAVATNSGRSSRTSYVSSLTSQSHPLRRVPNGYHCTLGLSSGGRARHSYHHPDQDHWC
T6 sequence (Q02410 whole entry): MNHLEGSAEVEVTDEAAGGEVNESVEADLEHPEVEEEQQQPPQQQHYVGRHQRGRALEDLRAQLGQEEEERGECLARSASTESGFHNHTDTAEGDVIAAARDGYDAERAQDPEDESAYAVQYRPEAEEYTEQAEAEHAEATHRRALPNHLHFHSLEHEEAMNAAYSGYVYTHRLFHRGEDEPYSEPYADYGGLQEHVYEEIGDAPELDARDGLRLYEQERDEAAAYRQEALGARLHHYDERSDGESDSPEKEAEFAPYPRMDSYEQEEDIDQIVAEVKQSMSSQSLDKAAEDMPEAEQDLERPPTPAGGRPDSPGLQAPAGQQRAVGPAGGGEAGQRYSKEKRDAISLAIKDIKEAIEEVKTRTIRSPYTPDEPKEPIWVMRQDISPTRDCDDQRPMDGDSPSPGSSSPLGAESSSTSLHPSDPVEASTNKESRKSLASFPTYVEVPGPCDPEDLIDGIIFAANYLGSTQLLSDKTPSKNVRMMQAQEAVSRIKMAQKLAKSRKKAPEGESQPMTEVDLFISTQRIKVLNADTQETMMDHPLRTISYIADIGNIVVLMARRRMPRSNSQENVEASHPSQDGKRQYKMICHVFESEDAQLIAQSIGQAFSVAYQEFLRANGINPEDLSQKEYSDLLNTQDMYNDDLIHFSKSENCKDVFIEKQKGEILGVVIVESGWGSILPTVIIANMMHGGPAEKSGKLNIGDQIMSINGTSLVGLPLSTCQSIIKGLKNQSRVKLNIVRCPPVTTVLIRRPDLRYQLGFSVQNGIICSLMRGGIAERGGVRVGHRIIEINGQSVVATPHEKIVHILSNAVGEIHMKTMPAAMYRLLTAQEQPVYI

[8] = biological target: T6, Voltage-gated N-type calcium channel alpha-1B subunit/Amyloid beta A4 precursor protein-binding family A member 1; type: protein assay; remark: listed apart in the source
[9] = cytotoxicity toward NIH3T3 fibroblasts, dose response, counter-screen, cell-based, ATP luminescence, mouse fibroblasts (AID 2010); type: functional;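 note: cells exposed to compound for about 90 hours before reading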
[10] = biological target: DNA dC->dU-editing enzyme APOBEC-3G (Homo sapiens, UniProt Q9HC16); assay: Dose Response confirmation of small molecule APOBEC3G DNA Deaminase Inhibitors via a fluorescence-based single-stranded DNA deaminase assay. [Related pubchem assays (depositor defined):AID493012, AID493028]; type: functional
DNA dC->dU-editing enzyme APOBEC-3G, sequence (Q9HC16 whole entry): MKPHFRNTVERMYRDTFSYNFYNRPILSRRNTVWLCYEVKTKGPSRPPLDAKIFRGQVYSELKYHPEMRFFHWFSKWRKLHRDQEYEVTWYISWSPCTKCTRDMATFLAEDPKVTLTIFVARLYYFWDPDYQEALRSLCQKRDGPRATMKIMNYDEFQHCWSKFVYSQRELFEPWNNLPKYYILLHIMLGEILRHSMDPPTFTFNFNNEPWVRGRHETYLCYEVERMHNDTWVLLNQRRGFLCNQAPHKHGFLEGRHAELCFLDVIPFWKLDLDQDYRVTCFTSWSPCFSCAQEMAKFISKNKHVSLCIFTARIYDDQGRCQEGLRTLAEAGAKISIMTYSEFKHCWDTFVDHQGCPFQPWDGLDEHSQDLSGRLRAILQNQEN

Ion channel NompC = Ion channel NompC (Danio rerio, UniProt Q7T1G6); assay: Dose response cell-based high-throughput screening assay for agonists of the transient receptor potential channel N1 (TRPN1). [Related pubchem assays (depositor defined):AID1424, AID1448]; type: functional
[11] = biological target: DNA dC->dU-editing enzyme APOBEC-3A (Homo sapiens, UniProt P31941); assay: APOBEC3A DNA deaminase inhibitors, dose response, biochemical (AID 504722); type: functional
DNA dC->dU-editing enzyme APOBEC-3A, sequence (P31941 whole entry): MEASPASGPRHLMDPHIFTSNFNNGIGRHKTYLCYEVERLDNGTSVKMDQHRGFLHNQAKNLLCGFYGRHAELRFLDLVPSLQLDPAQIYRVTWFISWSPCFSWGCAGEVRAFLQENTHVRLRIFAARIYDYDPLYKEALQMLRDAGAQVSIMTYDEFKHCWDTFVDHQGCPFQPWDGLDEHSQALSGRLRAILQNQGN

Vero = assay: cells; type: functional, cell-based; conditions: Chlorocebus sabaeus
[12] = biological target: T7, Lysine-specific demethylase 4C (Homo sapiens, UniProt Q9H3R0); assay: GASC-1 (JMJD2C) histone demethylase inhibitors, dose response, biochemical, DELFIA europium, cherry-picked samples (AID 488835); type: functional
T7 sequence (Q9H3R0 whole entry): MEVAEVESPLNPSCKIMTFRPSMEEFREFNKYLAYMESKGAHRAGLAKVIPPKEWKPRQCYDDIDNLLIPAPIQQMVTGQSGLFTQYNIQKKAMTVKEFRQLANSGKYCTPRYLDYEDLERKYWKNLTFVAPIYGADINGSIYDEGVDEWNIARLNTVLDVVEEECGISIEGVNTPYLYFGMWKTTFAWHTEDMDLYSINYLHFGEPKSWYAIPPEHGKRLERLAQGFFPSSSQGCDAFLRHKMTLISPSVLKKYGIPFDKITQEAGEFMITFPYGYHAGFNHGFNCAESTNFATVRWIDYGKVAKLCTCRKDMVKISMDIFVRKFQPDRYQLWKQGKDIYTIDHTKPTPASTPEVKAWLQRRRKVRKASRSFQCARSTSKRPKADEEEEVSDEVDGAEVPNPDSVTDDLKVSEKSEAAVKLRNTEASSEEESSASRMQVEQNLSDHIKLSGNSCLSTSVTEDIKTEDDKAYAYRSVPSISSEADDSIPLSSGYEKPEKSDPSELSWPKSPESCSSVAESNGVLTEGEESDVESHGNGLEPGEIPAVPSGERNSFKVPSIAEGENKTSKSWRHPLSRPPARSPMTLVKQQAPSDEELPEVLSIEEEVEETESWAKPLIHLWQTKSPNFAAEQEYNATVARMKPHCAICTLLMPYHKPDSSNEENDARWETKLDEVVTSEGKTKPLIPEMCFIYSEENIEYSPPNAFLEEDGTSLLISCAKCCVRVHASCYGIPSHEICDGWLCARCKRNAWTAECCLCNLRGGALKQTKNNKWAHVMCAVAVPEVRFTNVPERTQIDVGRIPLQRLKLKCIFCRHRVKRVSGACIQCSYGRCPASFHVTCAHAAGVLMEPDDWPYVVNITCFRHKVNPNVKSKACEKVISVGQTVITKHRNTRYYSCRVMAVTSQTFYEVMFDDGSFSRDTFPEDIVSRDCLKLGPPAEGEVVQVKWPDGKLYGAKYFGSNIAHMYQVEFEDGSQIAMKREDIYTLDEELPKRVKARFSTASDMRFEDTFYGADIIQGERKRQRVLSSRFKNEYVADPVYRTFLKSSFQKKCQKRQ

HEK293 [13] = assay: cells; conditions: Homo sapiens
HEK293 [14] = assay: cells; conditions: Homo sapiens; remark: listed apart in the source
[15] = biological target: T8, Bifunctional protein GlmU (Mycobacterium tuberculosis, UniProt P9WMN3); assay: Inhibitors of Mycobacterial Glucosamine-1-phosphate acetyl transferase (GlmU). Secondary screen.; set-up: species or system Mycobacterium tuberculosis H37Rv
T8 sequence (P9WMN3 whole entry): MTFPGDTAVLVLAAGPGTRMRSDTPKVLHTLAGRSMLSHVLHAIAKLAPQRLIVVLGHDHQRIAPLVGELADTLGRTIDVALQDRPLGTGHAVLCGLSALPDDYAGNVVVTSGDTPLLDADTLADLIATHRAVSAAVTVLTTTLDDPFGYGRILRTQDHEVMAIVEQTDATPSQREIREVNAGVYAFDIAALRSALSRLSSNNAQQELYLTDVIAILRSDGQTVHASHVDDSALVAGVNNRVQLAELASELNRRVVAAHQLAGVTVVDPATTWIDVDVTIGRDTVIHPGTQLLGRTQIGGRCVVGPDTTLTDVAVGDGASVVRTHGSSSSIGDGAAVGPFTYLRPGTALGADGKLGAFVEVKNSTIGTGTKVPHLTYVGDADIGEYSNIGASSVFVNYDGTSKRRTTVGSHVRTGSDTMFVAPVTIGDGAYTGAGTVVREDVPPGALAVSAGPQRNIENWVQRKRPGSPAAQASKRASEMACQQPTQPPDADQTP

O=S(=O)(Nc1cc(Sc2cccc3cccnc23)c(O)c2ccccc12)c1ccc(F)cc1
EC50 [1]: > 300 µM (not active) | IC50 [2]: > 80 µM (inactive) | EC50 [3]: 40.1 µM (active) | AC50 (INS1): 1.21 µM (active)

Cc1c(N=C2C=C(Br)C(=O)C(Br)=C2)c(=O)n(-c2ccccc2)n1C
IC50 [4]: > 50 µM (not active) | IC50 [2]: 58.4 µM (inactive) | IC50 [5]: 52.2 µM (active) | IC50 (Large T antigen): 27 µM (active) | IC50 (Genome polyprotein): 82.5 µM (active)

Cc1cc(C)c2c(=O)n(CC(=O)Nc3cccc(Cl)c3C)sc2n1
IC50 [2]: 46.5 µM (inactive) | EC50 (Mucolipin-3): > 29.9 µM (not active) | EC50 [6]: 1.65 µM (active) | IC50 (Large T antigen): 9.03 µM (active) | IC50 [7]: > 50 µM (inactive) | IC50 [8]: 17.8 µM (active) | EC50 [9]: 7.73 µM (active) | IC50 [10]: 6.83 µM (active) | EC50 (Ion channel NompC): > 29.9 µM (inactive) | IC50 [11]: > 100 µM (inactive)

O=c1oc(C2(O)CCCCC2)cc2ccc(-c3ccc4[nH]ccc4c3)cc12
IC50 (Vero): 1.11 µM (active)

CN1C(=O)N(C)C(=O)C2(Sc3ccccc3C2=O)C1=O
AC50 [12]: 11.2 µM (active)

N#Cc1c(N)n(C2CCCCC2)c2nc3ccccc3nc12
EC50 (HEK293 [13]): > 59.6 µM (inactive) | EC50 (HEK293 [14]): > 59.6 µM (inactive)

Cc1cccc(N2C(=O)NC(=O)/C(=C/c3ccc([N+](=O)[O-])o3)C2=O)c1
AC50 [12]: 5.37 µM (active) | IC50 [15]: 149 µM (active)

CCCCCn1/c(=N/C(=O)c2ccco2)c(C(=O)OCC)cc2c(=O)n3ccccc3nc21
EC50 (HEK293 [13]): > 59.6 µM (inactive) | EC50 (HEK293 [14]): > 59.6 µM (inactive)
